Measured values from ChEMBL document CHEMBL1137621, “3-Nitro-4-amino benzoic acids and 6-amino nicotinic acids are highly selective agonists of GPR109b” (Bioorg Med Chem Lett, 2007).
Active and inactive are the calls of the source. The rule behind the calls is not given here.

Columns and labels:
[1] = target: Hydroxycarboxylic acid receptor 3 (Homo sapiens, UniProt P49019); assay: Agonist activity at human GPR109b receptor transfected in CHOK1 cells assessed as reversal of forskolin-induced cAMP elevating effect by whole cell assay; format: functional, cell-based, CHO-K1
Sequence of Hydroxycarboxylic acid receptor 3 (P49019 whole entry): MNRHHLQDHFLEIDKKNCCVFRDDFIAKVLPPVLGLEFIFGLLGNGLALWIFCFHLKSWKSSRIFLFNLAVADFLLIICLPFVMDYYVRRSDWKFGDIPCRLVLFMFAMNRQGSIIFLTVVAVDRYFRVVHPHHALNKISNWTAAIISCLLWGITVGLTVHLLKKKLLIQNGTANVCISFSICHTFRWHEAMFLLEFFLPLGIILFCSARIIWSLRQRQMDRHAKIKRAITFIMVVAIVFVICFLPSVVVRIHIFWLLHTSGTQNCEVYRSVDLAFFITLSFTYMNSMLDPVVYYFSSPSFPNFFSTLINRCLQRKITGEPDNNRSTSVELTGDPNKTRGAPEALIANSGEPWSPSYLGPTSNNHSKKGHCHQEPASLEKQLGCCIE

[2] = target: T1, Hydroxycarboxylic acid receptor 2 (Homo sapiens, UniProt Q8TDS4); assay: Agonist activity at human GPR109a receptor transfected in CHOK1 cells at 30 uM assessed as reversal of forskolin induced cAMP elevating effect by whole cell assay; format: functional, cell-based; settings: CHO-K1
T1 sequence (Q8TDS4 whole entry): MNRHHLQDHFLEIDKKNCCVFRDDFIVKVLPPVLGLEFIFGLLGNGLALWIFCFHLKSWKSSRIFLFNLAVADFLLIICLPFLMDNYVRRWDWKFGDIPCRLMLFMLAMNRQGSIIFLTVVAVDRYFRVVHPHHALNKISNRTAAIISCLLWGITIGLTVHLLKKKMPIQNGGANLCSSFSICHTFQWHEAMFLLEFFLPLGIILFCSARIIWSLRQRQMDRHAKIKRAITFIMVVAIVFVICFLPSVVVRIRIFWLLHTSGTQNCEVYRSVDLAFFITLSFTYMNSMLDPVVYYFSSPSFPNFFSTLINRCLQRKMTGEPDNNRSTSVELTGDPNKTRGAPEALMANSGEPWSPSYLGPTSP

[3] = target: T1, Hydroxycarboxylic acid receptor 2; assay: Agonist activity at human GPR109a receptor transfected in CHOK1 cells assessed as reversal of forskolin induced cAMP elevating effect by whole cell assay; format: functional, cell-based, CHO-K1

Row | Structure (SMILES) | EC50 [1] | Activity [2] | EC50 [3] | Activity ([1]; CHO-K1)
1 | CCCN(C)c1ccc(C(=O)O)cn1 | 1620 nM | inactive |  | 
2 | CCCN(CCC)c1ccc(C(=O)O)cn1 | 6310 nM | inactive |  | 
3 | COCC(C)Nc1ccc(C(=O)O)cn1 (centres undefined) | 3240 nM | inactive |  | 
4 | O=C(O)c1ccc(NC(=O)c2ccccc2)c([N+](=O)[O-])c1 | 3090 nM | inactive |  | 
5 | CN(C)c1ccc(C(=O)O)cn1 | > 10000 nM | inactive |  | 
6 | O=C(O)c1ccc(NCC2CCCO2)nc1 (centres undefined) | 603 nM | inactive |  | 
7 | C=CCNc1ccc(C(=O)O)cc1[N+](=O)[O-] | 100 nM | inactive |  | 
8 | CCCNc1ccc(C(=O)O)cn1 | 51.3 nM | inactive |  | 
9 | CCNc1ccc(C(=O)O)cn1 | 398 nM | inactive |  | 
10 | O=C(O)c1ccc(NC2CCCC2)c([N+](=O)[O-])c1 | 309 nM | inactive |  | 
11 | CCC(C)Nc1ccc(C(=O)O)cn1 (centres undefined) | 380 nM | inactive |  | 
12 | CCCN(CCC)c1ccc(C(=O)O)cc1[N+](=O)[O-] | 120 nM | inactive |  | 
13 | CC(C)CNc1ccc(C(=O)O)cn1 | 1070 nM |  | 35000 nM | 
14 | O=C(O)c1ccc(NC2CCC2)nc1 | 72.4 nM | inactive |  | 
15 | COCC(C)Nc1ccc(C(=O)O)cc1[N+](=O)[O-] (centres undefined) | 1410 nM | inactive |  | 
16 | CCN(CC)c1ccc(C(=O)O)cc1[N+](=O)[O-] | 631 nM | inactive |  | 
17 | COCCNc1ccc(C(=O)O)cn1 | 933 nM | inactive |  | 
18 | CCC(C)Nc1ccc(C(=O)O)cc1[N+](=O)[O-] (centres undefined) | 151 nM | inactive |  | 
19 | O=C(O)c1ccc(Nc2ccccc2)c([N+](=O)[O-])c1 | 2450 nM | inactive |  | 
20 | O=C(O)c1ccc(NC(=O)c2ccccc2)nc1 | 1580 nM | inactive |  | 
21 | CCN(CC)c1ccc(C(=O)O)cn1 | > 10000 nM | inactive |  | 
22 | CC(C)Nc1ccc(C(=O)O)cn1 | 603 nM | inactive |  | 
23 | O=C(O)c1ccc(N2CCCC2)c([N+](=O)[O-])c1 | > 10000 nM | inactive |  | 
24 | CCCCCNc1ccc(C(=O)O)cc1[N+](=O)[O-] | 282 nM | inactive |  | 

Row | Structure (SMILES) | EC50 [1] | Activity [2] | EC50 [3] | Activity ([1]; CHO-K1)
25 | O=C(O)c1ccc(NC2CCC2)c([N+](=O)[O-])c1 | 200 nM | inactive |  | 
26 | CCCN(C)c1ccc(C(=O)O)cc1[N+](=O)[O-] | 52.5 nM | inactive |  | 
27 | CC(C)C(C)Nc1ccc(C(=O)O)cc1[N+](=O)[O-] (centres undefined) | 363 nM | inactive |  | 
28 | C=CCNc1ccc(C(=O)O)cn1 | 70.8 nM | inactive |  | 
29 | CC(C)C(C)Nc1ccc(C(=O)O)cn1 (centres undefined) | 1320 nM | inactive |  | 
30 | CCCNc1ccc(C(=O)O)cc1[N+](=O)[O-] | 29.5 nM | inactive |  | 
31 | O=C(O)c1ccc(NC2CCCC2)nc1 | 389 nM | inactive |  | 
32 | CCC(CC)Nc1ccc(C(=O)O)cc1[N+](=O)[O-] | 57.5 nM | inactive |  | 
33 | O=C(O)c1ccc(N2CCCC2)nc1 |  | inactive |  | inactive
34 | CCCCCNc1ccc(C(=O)O)cn1 | 151 nM | inactive |  | 
35 | O=C(O)c1ccc(Nc2ccccc2)nc1 | 3240 nM | inactive |  | 
36 | CCC(CC)Nc1ccc(C(=O)O)cn1 | 269 nM |  | 20000 nM | 
37 | CCNc1ccc(C(=O)O)cc1[N+](=O)[O-] | 229 nM | inactive |  | 
38 | CN(C)c1ccc(C(=O)O)cc1[N+](=O)[O-] | 2040 nM | inactive |  | 
39 | CCCCNc1ccc(C(=O)O)cn1 | 100 nM | inactive |  | 
40 | CC(C)Nc1ccc(C(=O)O)cc1[N+](=O)[O-] | 257 nM | inactive |  | 
41 | CNc1ccc(C(=O)O)cc1[N+](=O)[O-] | 1910 nM | inactive |  | 
42 | CCCCNc1ccc(C(=O)O)cc1[N+](=O)[O-] | 158 nM | inactive |  | 
43 | O=C(O)c1ccc(NC2CC2)c([N+](=O)[O-])c1 | 309 nM | inactive |  | 
44 | O=C(O)c1ccc(NC2CC2)nc1 | 324 nM | inactive |  | 
45 | O=C(O)c1ccc(NCC2CCCO2)c([N+](=O)[O-])c1 (centres undefined) | 309 nM | inactive |  | 
46 | COCCNc1ccc(C(=O)O)cc1[N+](=O)[O-] | 589 nM | inactive |  | 
47 | CNc1ccc(C(=O)O)cn1 | 7410 nM | inactive |  | 
